Assay results reported in US20150141506A1, “INDANE DIMERS FOR USE IN THE TREATMENT OF AUTOIMMUNE INFLAMMATORY DISEASE” (Venantius Limited, priority 2012, published 2015).
≈ marks a conversion by molar mass, not a printed value. Entries after “also recorded” stand apart in the source; their conditions may differ. Where two headings read alike, the source gives them in different places.

Key:
[1] = Solubility in Milli-RO water and pH buffers; format: physicochemical
Method: The sodium salt, potassium salt, calcium salt, α-methylbenzylamine salt and N-Methyl-(D)-Glucamine salt were synthesised.
The solubility of the four compounds were determined: […]

[2] = tested on: chronic colitis in IL10-/- BALB/c strain mice; experiment: Chronic IL10-/- colitis model; format: in vivo; details: MWF
Method: FIG. 15: Is a group showing weight loss in IL10^−−/−− mice treated with vehicle or compound 6. Mice were administered compound 6 (300 mg/kg/week) or vehicle orally on a Monday/Wednesday/Friday (MWF) dosing schedule. Mice were ˜4 weeks of age at start of experiment and were treated for 9 weeks. Mice were weighed weekly and data are presented as Mean±SEM from 9-12 mice per group. Mice were monitored for overt disease, rectal prolapse, and moribund animals were humanely killed;
Mice with a deletion in the IL10^−−/−− gene spontaneously develop chronic colitis, with the age of onset and the severity of the disease being dependent on background mouse strain and the conditions in which the animals are housed. The onset of colitis in IL10^−−/−− mice housed under the conditions used in this study was also strain dependent, with an earlier onset and greater severity, in terms of mortality, in BALB/c strain mice relative to C57BL/6 strain animals. In this experiment, animals received oral treatment on a MWF regime over 9 weeks. Initially, both groups of mice progressively gain weight (FIG. 15). […] By week 9 animals had marked weight loss, with one moribund animal humanely killed on day 60 in each group. As other mice were losing weight and developing clinical symptoms of disease, both groups were culled at week 9 (day 63) and analysed.

[3] = tested on: 5% DSS colitis in BALB/c mice; experiment: Acute murine 5% DSS colitis model, Experiment 1; format: in vivo
From the text: The study is widely used as a model for studying the pathogenesis of UC and also for screening new therapeutic interventions for the treatment of UC.
In these studies, an acute colitis model was used, with 5% DSS administered in the drinking water of BALB/c mice. This dosage regime induces severe acute colitis, by days 7-8 mice had overt rectal bleeding and marked weight loss; unless sacrificed beforehand, all mice would have died by days 10-12.
Specific Pathogen-Free BALB/c mice, 6-8 weeks of age, were obtained from a commercial supplier (Harlan UK). Mice were fed irradiated diet and housed in individually ventilated cages (Tecniplast UK) under positive pressure.
DSS (5%) was dissolved in drinking water. Compounds were administered orally at a dose of 10 mg/kg or 30 mg/kg on days 0-7, and mice were culled on day 8 or day 9, depending on the severity of the disease. The mice were checked each day for morbidity and the weight of individual mice was recorded. Induction of colitis was determined upon autopsy, length of colon and histology. Colons were recovered and stored at −20° C. for immunological analysis. All of the compounds and experimental groups are randomly alphabetically labelled. Throughout experiments all data recording was performed in a blind manner. The codes on boxes/groups were not broken until after the data was analysed i.e. boxes labelled A, B, C etc were identified as untreated, DSS-treated, or DSS+compound-treated.
To quantify the extent of colitis, a disease activity index (DAI) was determined based on weight loss, faecal blood and stool consistency. A score was given for each parameter, with the sum of the scores used as the DAI. For each treatment group n=8.
All compounds were prepared for oral gavage (0.1 mL per os (p.o.) per 10 g body weight) as a suspension in 0.5% carboxymethyl cellulose/2% Tween 80, at a dose of 3-30 mg/Kg.

[4] = Partition coefficient (Log10 POW) by HPLC method; format: physicochemical; details: reverse phase C18 HPLC
[5] = Plasma half-life in the rat; format: in vivo; details: read-out: plasma half-life (t1/2) (converted)
[6] = 3, 10 and 30 mg/Kg oral daily for 7 days

With `O=C(O)c1ccc(C[C@@]2(C3=Cc4ccccc4C3)Cc3ccccc3[C@H]2O)cc1` [Compound 6] the solubility ([1]; Milli-RO water, water, read-out: solubility, Milli-RO H20) was over 60000 µg/mL, the solubility ([1]; pH 4.0 buffer, pH 4, aqueous buffer, read-out: solubility, pH 4.0 Buffer) was 0.5 µg/mL (≈ 0.00131 mM) and the solubility ([1]; pH 7.0 buffer, pH 7, aqueous buffer, read-out: solubility, pH 7.0 Buffer) was over 60000 µg/mL. The solubility ([1]; pH 9.0 buffer, pH 9, aqueous buffer, read-out: solubility, pH 9.0 Buffer) was over 3000 µg/mL, the “survival by Kaplan-Meier analysis versus vehicle” value ([2]; 300 mg/kg/week oral, 9 weeks) was “no statistical difference in survival” and the “weight loss and deaths from colitis relative to vehicle, in words” value ([2]; 300 mg/kg/week oral, 9 weeks) was “delayed weight loss and reduced deaths from colitis”. The mortalities ([2]; 300 mg/kg/week oral, 9 weeks, vehicle 25%) was 9.2%, the “weight gain maintained until” value ([2]; 300 mg/kg/week oral, vehicle stopped gaining from week 5) was 8 week and the “Serum Amyloid A (SAA) levels relative to vehicle” value ([2]; week 9, 300 mg/kg/week oral) was “significantly (P<0.05; Student's t-test) reduced”. For the same compound, the “extent of colon pathology (histology score) relative to vehicle” value ([2]; week 9, 300 mg/kg/week oral) was “significantly reduced”, the “colon pathology (histology score) relative to vehicle” value ([3]; 10 mg/Kg) was “highly statistically significant reduction” and the “colon pathology (histology score) relative to vehicle” value ([3]; 30 mg/Kg) was “highly statistically significant reduction”. For the same compound, the “overt reactions in mice” value [3, 6] was “caused no overt reactions”, the “severity of colitis, multiple parameters of disease” value [3, 6] was “ameliorated the severity of colitis; also recorded: dose-dependent” and the “DAI on the day of autopsy versus vehicle controls” value ([3]; 3-30 mg/kg, each dose level) was “significantly (P<0.05-P<0.01) lower”. The “potency compared among the four enantiomers, in words” value ([3]; 30 and 10 mg/kg) was “most potent of the four enantiomers”, the “efficacy relative to prednisolone at 5 mg/Kg” value ([3]; compound 6 at 30 mg/Kg) was “comparable, or better; also recorded: comparable or better” and the “inhibition of colon shortening versus vehicle controls” value ([3]; day 7, 3 mg/kg) was “did not have a significant effect”. For the same compound, the “inhibition of colon shortening versus vehicle controls” value ([3]; day 7, 10 mg/kg) was “did have a significant effect”, the “disease activity index (DAI)” value ([3]; day 7, 10 mg/kg daily for 7 days, vehicle 9.3±0.51) was 3.3±0.52 and the “colon cytokine levels (IL1β, TNFα, IL6)” value ([3]; day 7, 30 mg/kg) was “significant (P<0.05, 30 mg/kg) and dose-dependant reduction”. The “inhibition of colon shortening versus vehicle controls” value ([3]; day 7, 30 mg/kg) was “did have a significant effect; also recorded: significantly better than Prednisolone”, the “reduction of colonic myeloperoxidase (MPO) activity” value ([3]; day 7, 30 mg/kg) was 63% and the “Log10 POW, Acid” value ([4]; acidic pH) was 2.6. The “Log10 POW, Basic” value ([4]; alkaline pH) was 4.3, the “Log10 POW, Neutral” value ([4]; neutral pH) was 3.5 and the half-life [5] was 3 h.
